Key:
Estrogen receptor = target: T1, Estrogen receptor (Homo sapiens, UniProt P03372); test: Binding affinity to human ERalpha expressed in Sf9 cells by fluoligand binding-based fluorescence polarization method
T1 sequence (P03372 whole entry): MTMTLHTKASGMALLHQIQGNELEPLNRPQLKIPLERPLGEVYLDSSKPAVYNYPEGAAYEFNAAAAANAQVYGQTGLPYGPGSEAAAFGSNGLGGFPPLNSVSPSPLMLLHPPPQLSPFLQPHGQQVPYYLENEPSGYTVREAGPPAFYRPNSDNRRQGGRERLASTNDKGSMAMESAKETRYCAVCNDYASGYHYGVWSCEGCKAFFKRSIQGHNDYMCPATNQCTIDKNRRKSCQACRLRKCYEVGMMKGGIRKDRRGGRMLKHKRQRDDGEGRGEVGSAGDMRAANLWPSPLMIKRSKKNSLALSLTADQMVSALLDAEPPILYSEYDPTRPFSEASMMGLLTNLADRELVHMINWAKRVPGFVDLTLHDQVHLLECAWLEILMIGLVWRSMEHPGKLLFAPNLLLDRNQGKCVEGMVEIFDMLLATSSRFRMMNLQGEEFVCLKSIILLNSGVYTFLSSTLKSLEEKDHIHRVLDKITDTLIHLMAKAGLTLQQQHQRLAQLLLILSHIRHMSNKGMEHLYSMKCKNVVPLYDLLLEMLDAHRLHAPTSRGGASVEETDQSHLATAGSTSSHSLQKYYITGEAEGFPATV

Estrogen receptor beta = Estrogen receptor beta (Homo sapiens, UniProt Q92731); test: Binding affinity to human ERbeta expressed in Sf9 cells by fluoligand binding-based fluorescence polarization method
Rattus norvegicus [1] = test: Dose normalized Cmax in Han-Wistar rat at 2.1 mg/kg, po; format: ADME, organism-based; conditions: in vivo
[2] = Terminal half life in Han-Wistar rat at 2.1 mg/kg, po; format: ADME, organism-based; conditions: in vivo, read-out: beta t1/2 (converted)
[3] = Oral bioavailability in Beagle dog at 0.5 mg/kg; format: ADME, organism-based, Canis lupus familiaris; conditions: in vivo
Rattus norvegicus [4] = test: Antiinflammatory activity in streptococcal cell wall reactivation Lewis rat model assessed as reduction of joint swelling at 0.3 mg/kg administered once daily for 8 days by oral gavage starting 1 day prior to streptococcal cell wall challenge measured during 6 days post challenge relative to control; format: functional; design: scale not given: the % may be the effect or the level left
[5] = target: T2, Glucocorticoid receptor (Homo sapiens) (UniProt P04150)
T2 sequence (whole entry): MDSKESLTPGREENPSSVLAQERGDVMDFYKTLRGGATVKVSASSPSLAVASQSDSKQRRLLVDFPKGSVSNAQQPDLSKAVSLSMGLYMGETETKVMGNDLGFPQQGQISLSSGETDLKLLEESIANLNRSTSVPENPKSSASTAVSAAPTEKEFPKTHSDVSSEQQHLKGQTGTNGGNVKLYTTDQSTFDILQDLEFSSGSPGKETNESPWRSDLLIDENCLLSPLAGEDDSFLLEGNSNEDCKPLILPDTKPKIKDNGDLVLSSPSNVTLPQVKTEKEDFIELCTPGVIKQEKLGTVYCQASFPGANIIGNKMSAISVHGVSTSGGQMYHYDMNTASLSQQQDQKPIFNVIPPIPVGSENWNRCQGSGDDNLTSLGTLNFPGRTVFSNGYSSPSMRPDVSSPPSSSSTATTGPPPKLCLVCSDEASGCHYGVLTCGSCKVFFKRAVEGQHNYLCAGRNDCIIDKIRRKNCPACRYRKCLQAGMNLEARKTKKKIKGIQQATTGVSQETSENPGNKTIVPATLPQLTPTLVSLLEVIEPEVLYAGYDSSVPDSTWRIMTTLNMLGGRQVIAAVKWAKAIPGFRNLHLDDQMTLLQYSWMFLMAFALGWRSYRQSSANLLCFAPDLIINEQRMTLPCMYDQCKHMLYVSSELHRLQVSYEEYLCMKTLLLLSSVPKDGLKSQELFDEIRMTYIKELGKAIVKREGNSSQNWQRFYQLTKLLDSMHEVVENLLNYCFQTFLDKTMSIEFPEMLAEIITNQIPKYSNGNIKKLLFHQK
Description: Transrepression of GR in cryopreserved human fetal osteoblasts assessed as inhibition of OPG mRNA expression after 4 hrs by RT-qPCR analysis

Estrogen receptor beta, sequence (Q92731 whole entry): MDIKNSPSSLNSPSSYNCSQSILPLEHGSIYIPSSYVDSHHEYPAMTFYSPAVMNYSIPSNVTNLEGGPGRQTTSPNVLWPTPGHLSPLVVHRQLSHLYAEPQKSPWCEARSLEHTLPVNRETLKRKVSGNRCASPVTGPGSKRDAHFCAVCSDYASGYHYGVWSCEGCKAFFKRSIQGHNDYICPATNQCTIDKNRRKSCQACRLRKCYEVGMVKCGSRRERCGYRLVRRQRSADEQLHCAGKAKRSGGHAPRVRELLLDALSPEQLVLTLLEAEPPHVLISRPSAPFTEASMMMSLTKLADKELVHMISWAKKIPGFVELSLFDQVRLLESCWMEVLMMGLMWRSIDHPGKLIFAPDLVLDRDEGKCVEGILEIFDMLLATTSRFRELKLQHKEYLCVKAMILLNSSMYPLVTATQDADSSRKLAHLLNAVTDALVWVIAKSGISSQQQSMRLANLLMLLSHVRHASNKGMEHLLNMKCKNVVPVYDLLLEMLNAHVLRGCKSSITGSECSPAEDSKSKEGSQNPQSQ

CC(C)[C@H](NC(=O)C(C)(F)F)[C@H](Oc1ccc2c(cnn2-c2ccc(=O)n(C)c2)c1)c1ccccc1 [MIZACORAT]
IC50 (Estrogen receptor): > 100 µM
IC50 (Estrogen receptor beta): > 100 µM
Cmax/dose (Rattus norvegicus [1]): 950 nM
half-life [2]: 1.9 h
bioavailability [3]: 48%
Activity (Rattus norvegicus [4]): 66%
fIC20 [5]: 0.74 nM

Reference: ChEMBL document CHEMBL4190372, “Discovery of a Novel Oral Glucocorticoid Receptor Modulator (AZD9567) with Improved Side Effect Profile” (J Med Chem, 2018)
